Reference: ChEMBL document CHEMBL2429768, “Eco-friendly synthesis and antimicrobial activities of substituted-5-(1H-indol-3-yl)methylene)-2,2-dimethyl-1,3-dioxane-4,6-dione derivatives” (2013)
In brackets after ≈: the same amount, converted by molar mass.

What was measured:
Assay type in all cases: functional
Rhizoctonia solani [1] = test: Antifungal activity against Rhizoctonia solani at 200 ug/ml after 72 hrs by agar well diffusion method; settings: read-out: DIZ
Aspergillus niger [2] = test: Antifungal activity against Aspergillus niger after 72 hrs by agar well diffusion method
Bacillus subtilis [3] = test: Antibacterial activity against Bacillus subtilis at 300 ug/ml after 24 hrs by agar well diffusion method; settings: read-out: DIZ
Rhizoctonia solani [4] = test: Antifungal activity against Rhizoctonia solani at 100 ug/ml after 72 hrs by agar well diffusion method; settings: read-out: DIZ
Aspergillus flavus [5] = test: Antifungal activity against Aspergillus flavus at 200 ug/ml after 72 hrs by agar well diffusion method; settings: read-out: DIZ
Rhizoctonia solani [6] = test: Antifungal activity against Rhizoctonia solani at 500 ug/ml after 72 hrs by agar well diffusion method; settings: read-out: DIZ
Escherichia coli [7] = test: Antibacterial activity against Escherichia coli ATCC 8739 at 500 ug/ml after 24 hrs by agar well diffusion method; settings: ATCC 8739, 24 h, read-out: DIZ
Staphylococcus aureus [8] = test: Antibacterial activity against Staphylococcus aureus ATCC 6538 at 200 ug/ml after 24 hrs by agar well diffusion method; settings: ATCC 6538, 24 h, read-out: DIZ
Fusarium oxysporum [9] = test: Antifungal activity against Fusarium oxysporum after 72 hrs by agar well diffusion method
Staphylococcus aureus [10] = test: Antibacterial activity against Staphylococcus aureus ATCC 6538 at 300 ug/ml after 24 hrs by agar well diffusion method; settings: ATCC 6538, 24 h, read-out: DIZ
Klebsiella pneumoniae [11] = test: Antibacterial activity against Klebsiella pneumoniae after 24 hrs by agar well diffusion method
Fusarium oxysporum [12] = test: Antifungal activity against Fusarium oxysporum at 500 ug/ml after 72 hrs by agar well diffusion method; settings: read-out: DIZ
Rhizoctonia solani [13] = test: Antifungal activity against Rhizoctonia solani at 300 ug/ml after 72 hrs by agar well diffusion method; settings: read-out: DIZ
Klebsiella pneumoniae [14] = test: Antibacterial activity against Klebsiella pneumoniae at 300 ug/ml after 24 hrs by agar well diffusion method; settings: read-out: DIZ
Fusarium oxysporum [15] = test: Antifungal activity against Fusarium oxysporum at 50 ug/ml after 72 hrs by agar well diffusion method; settings: read-out: DIZ
Bacillus subtilis [16] = test: Antibacterial activity against Bacillus subtilis at 50 ug/ml after 24 hrs by agar well diffusion method; settings: read-out: DIZ
Escherichia coli [17] = test: Antibacterial activity against Escherichia coli ATCC 8739 at 50 ug/ml after 24 hrs by agar well diffusion method; settings: ATCC 8739, 24 h, read-out: DIZ
Aspergillus flavus [18] = test: Antifungal activity against Aspergillus flavus at 50 ug/ml after 72 hrs by agar well diffusion method; settings: read-out: DIZ
Aspergillus niger [19] = test: Antifungal activity against Aspergillus niger at 200 ug/ml after 72 hrs by agar well diffusion method; settings: read-out: DIZ
Bacillus subtilis [20] = test: Antibacterial activity against Bacillus subtilis at 200 ug/ml after 24 hrs by agar well diffusion method; settings: read-out: DIZ
Staphylococcus aureus [21] = test: Antibacterial activity against Staphylococcus aureus ATCC 6538 at 50 ug/ml after 24 hrs by agar well diffusion method; settings: ATCC 6538, 24 h, read-out: DIZ
Aspergillus niger [22] = test: Antifungal activity against Aspergillus niger at 500 ug/ml after 72 hrs by agar well diffusion method; settings: read-out: DIZ
Klebsiella pneumoniae [23] = test: Antibacterial activity against Klebsiella pneumoniae at 100 ug/ml after 24 hrs by agar well diffusion method; settings: read-out: DIZ
Fusarium oxysporum [24] = test: Antifungal activity against Fusarium oxysporum at 300 ug/ml after 72 hrs by agar well diffusion method; settings: read-out: DIZ
Aspergillus flavus [25] = test: Antifungal activity against Aspergillus flavus at 300 ug/ml after 72 hrs by agar well diffusion method; settings: read-out: DIZ
Escherichia coli [26] = test: Antibacterial activity against Escherichia coli ATCC 8739 at 300 ug/ml after 24 hrs by agar well diffusion method; settings: ATCC 8739, 24 h, read-out: DIZ
Rhizoctonia solani [27] = test: Antifungal activity against Rhizoctonia solani after 72 hrs by agar well diffusion method
Aspergillus flavus [28] = test: Antifungal activity against Aspergillus flavus after 72 hrs by agar well diffusion method
Staphylococcus aureus [29] = test: Antibacterial activity against Staphylococcus aureus ATCC 6538 at 100 ug/ml after 24 hrs by agar well diffusion method; settings: ATCC 6538, 24 h, read-out: DIZ
Staphylococcus aureus [30] = test: Antibacterial activity against Staphylococcus aureus ATCC 6538 at 500 ug/ml after 24 hrs by agar well diffusion method; settings: ATCC 6538, 24 h, read-out: DIZ
Klebsiella pneumoniae [31] = test: Antibacterial activity against Klebsiella pneumoniae at 50 ug/ml after 24 hrs by agar well diffusion method; settings: read-out: DIZ
Bacillus subtilis [32] = test: Antibacterial activity against Bacillus subtilis at 100 ug/ml after 24 hrs by agar well diffusion method; settings: read-out: DIZ
Escherichia coli [33] = test: Antibacterial activity against Escherichia coli ATCC 8739 at 100 ug/ml after 24 hrs by agar well diffusion method; settings: ATCC 8739, 24 h, read-out: DIZ
Aspergillus niger [34] = test: Antifungal activity against Aspergillus niger at 100 ug/ml after 72 hrs by agar well diffusion method; settings: read-out: DIZ
Aspergillus niger [35] = test: Antifungal activity against Aspergillus niger at 50 ug/ml after 72 hrs by agar well diffusion method; settings: read-out: DIZ
Aspergillus flavus [36] = test: Antifungal activity against Aspergillus flavus at 100 ug/ml after 72 hrs by agar well diffusion method; settings: read-out: DIZ
Escherichia coli [37] = test: Antibacterial activity against Escherichia coli ATCC 8739 at 200 ug/ml after 24 hrs by agar well diffusion method; settings: ATCC 8739, 24 h, read-out: DIZ
Bacillus subtilis [38] = test: Antibacterial activity against Bacillus subtilis at 500 ug/ml after 24 hrs by agar well diffusion method; settings: read-out: DIZ
Staphylococcus aureus [39] = test: Antibacterial activity against Staphylococcus aureus ATCC 6538 after 24 hrs by agar well diffusion method; settings: ATCC 6538, 24 h
Fusarium oxysporum [40] = test: Antifungal activity against Fusarium oxysporum at 200 ug/ml after 72 hrs by agar well diffusion method; settings: read-out: DIZ
Klebsiella pneumoniae [41] = test: Antibacterial activity against Klebsiella pneumoniae at 200 ug/ml after 24 hrs by agar well diffusion method; settings: read-out: DIZ
Bacillus subtilis [42] = test: Antibacterial activity against Bacillus subtilis after 24 hrs by agar well diffusion method
Aspergillus flavus [43] = test: Antifungal activity against Aspergillus flavus at 500 ug/ml after 72 hrs by agar well diffusion method; settings: read-out: DIZ
Escherichia coli [44] = test: Antibacterial activity against Escherichia coli ATCC 8739 after 24 hrs by agar well diffusion method; settings: ATCC 8739, 24 h
Aspergillus niger [45] = test: Antifungal activity against Aspergillus niger at 300 ug/ml after 72 hrs by agar well diffusion method; settings: read-out: DIZ
Klebsiella pneumoniae [46] = test: Antibacterial activity against Klebsiella pneumoniae at 500 ug/ml after 24 hrs by agar well diffusion method; settings: read-out: DIZ
Rhizoctonia solani [47] = test: Antifungal activity against Rhizoctonia solani at 50 ug/ml after 72 hrs by agar well diffusion method; settings: read-out: DIZ
Fusarium oxysporum [48] = test: Antifungal activity against Fusarium oxysporum at 100 ug/ml after 72 hrs by agar well diffusion method; settings: read-out: DIZ

CC1(C)OC(=O)C(=Cc2c[nH]c3ccc([N+](=O)[O-])cc23)C(=O)O1
zone of inhibition at 200 µg/mL (Rhizoctonia solani [1]): 19 mm
MIC (Aspergillus niger [2]): 30 µg/mL (≈ 94.9 µM)
zone of inhibition at 300 µg/mL (Bacillus subtilis [3]): 16 mm
zone of inhibition at 100 µg/mL (Rhizoctonia solani [4]): 15 mm
zone of inhibition at 200 µg/mL (Aspergillus flavus [5]): 13 mm
zone of inhibition at 500 µg/mL (Rhizoctonia solani [6]): 32 mm
zone of inhibition at 500 µg/mL (Escherichia coli [7]): 33 mm
zone of inhibition at 200 µg/mL (Staphylococcus aureus [8]): 15 mm
MIC (Fusarium oxysporum [9]): 25 µg/mL (≈ 79 µM)
zone of inhibition at 300 µg/mL (Staphylococcus aureus [10]): 18 mm
MIC (Klebsiella pneumoniae [11]): 10 µg/mL (≈ 31.6 µM)
zone of inhibition at 500 µg/mL (Fusarium oxysporum [12]): 31 mm
zone of inhibition at 300 µg/mL (Rhizoctonia solani [13]): 24 mm
zone of inhibition at 300 µg/mL (Klebsiella pneumoniae [14]): 25 mm
zone of inhibition at 50 µg/mL (Fusarium oxysporum [15]): 10 mm
zone of inhibition at 50 µg/mL (Bacillus subtilis [16]): 6 mm
zone of inhibition at 50 µg/mL (Escherichia coli [17]): 10 mm
zone of inhibition at 50 µg/mL (Aspergillus flavus [18]): 5 mm
zone of inhibition at 200 µg/mL (Aspergillus niger [19]): 15 mm
zone of inhibition at 200 µg/mL (Bacillus subtilis [20]): 13 mm
zone of inhibition at 50 µg/mL (Staphylococcus aureus [21]): 8 mm
zone of inhibition at 500 µg/mL (Aspergillus niger [22]): 26 mm
zone of inhibition at 100 µg/mL (Klebsiella pneumoniae [23]): 16 mm
zone of inhibition at 300 µg/mL (Fusarium oxysporum [24]): 21 mm
zone of inhibition at 300 µg/mL (Aspergillus flavus [25]): 17 mm
zone of inhibition at 300 µg/mL (Escherichia coli [26]): 22 mm
MIC (Rhizoctonia solani [27]): 25 µg/mL (≈ 79 µM)
MIC (Aspergillus flavus [28]): 35 µg/mL (≈ 111 µM)
zone of inhibition at 100 µg/mL (Staphylococcus aureus [29]): 12 mm
zone of inhibition at 500 µg/mL (Staphylococcus aureus [30]): 28 mm
zone of inhibition at 50 µg/mL (Klebsiella pneumoniae [31]): 11 mm
zone of inhibition at 100 µg/mL (Bacillus subtilis [32]): 11 mm
zone of inhibition at 100 µg/mL (Escherichia coli [33]): 15 mm
zone of inhibition at 100 µg/mL (Aspergillus niger [34]): 11 mm
zone of inhibition at 50 µg/mL (Aspergillus niger [35]): 7 mm
zone of inhibition at 100 µg/mL (Aspergillus flavus [36]): 10 mm
zone of inhibition at 200 µg/mL (Escherichia coli [37]): 17 mm
zone of inhibition at 500 µg/mL (Bacillus subtilis [38]): 24 mm
MIC (Staphylococcus aureus [39]): 20 µg/mL (≈ 63.2 µM)
zone of inhibition at 200 µg/mL (Fusarium oxysporum [40]): 17 mm
zone of inhibition at 200 µg/mL (Klebsiella pneumoniae [41]): 20 mm
MIC (Bacillus subtilis [42]): 20 µg/mL (≈ 63.2 µM)
zone of inhibition at 500 µg/mL (Aspergillus flavus [43]): 24 mm
MIC (Escherichia coli [44]): 10 µg/mL (≈ 31.6 µM)
zone of inhibition at 300 µg/mL (Aspergillus niger [45]): 19 mm
zone of inhibition at 500 µg/mL (Klebsiella pneumoniae [46]): 34 mm
zone of inhibition at 50 µg/mL (Rhizoctonia solani [47]): 10 mm
zone of inhibition at 100 µg/mL (Fusarium oxysporum [48]): 14 mm
